According to article PMC12406255, “Engineering Peptide Modulators for T‑Cell Migration by Structural Scaffold Matching” (Journal of Medicinal Chemistry, 2025):
Where two headings read alike, the source gives them in different places. Positions of bridges follow the written chain, without caps; N, C: chain ends. Non-standard residues stand in square brackets, D forms with d. Residues, ends and D or L forms follow the SMILES beside them. Nle = CCCC[C@H](N)C(=O)O

What was measured:
Serum stability assay = type: in vitro ADME; settings: human serum of healthy donors, lipids removed by centrifugation, 37 °C, peptide 30-60 μM from 10-fold stock in PBS, followed over 48 h, urea/TFA quench, analytical RP-HPLC peak area vs time 0, one-phase decay fit; mean ± SD, n = 2 (pepitem n = 5); read-out: Serum t 1/2 (converted)
Experimental: Stability of peptides in human serum was measured similarly to that previously described. In short, fresh blood from healthy donors was collected in serum collection tubes (Clot Activator Tube, Becton Dickinson, Plymouth, United Kingdom, […]) and incubated at 4 °C for 2 h to allow blood clotting. The serum was separated by centrifugation at 1000 × g for 10 min. To remove lipids from the serum, an additional centrifugation step was performed at 15,000 × g for 15 min at 4 °C, after which the serum was used for the stability assays. For this, the serum was prewarmed for 10 min at 37 °C before the addition of the test compounds. Peptides were prepared at a 10-fold concentration in PBS and diluted to a final concentration between 60 and 30 μM with the serum. The serum-peptide reaction mix was incubated at 37 °C, and 40 μL aliquots were taken at the indicated time points. To stop the reaction, samples were mixed with 40 μL of 6 M urea for 10 min on ice, followed by precipitation of serum proteins by the addition of 40 μL of 20% TFA and incubation for at least 10 min on ice. The precipitate was pelleted at 15,000 × g for 15 min, and 90 μL of the supernatant was freeze-dried. The dry material was resuspended in HPLC solvent A (0.1% TFA in ddH2O). Peptide quantification was performed using analytical HPLC. The remaining peptide relative to the starting point (time point 0) was calculated by peak integration to determine the area under the peak at the designated time points and further calculated in comparison to time point 0 min, which was set as 100%. To calculate the half-life of the peptides in human serum, data points were fitted with a one-phase decay equation.

CD3+ lymphocytes = experiment: cells; type: cell-based, human; settings: normalized to untreated control, mean ± SEM of 4-6 experiments
Experimental: 1 Transwell-based migration assay to study lymphocyte transendothelial migration. (A) The general principle of the transwell migration assay is depicted. Endothelial cells (EC) are seeded in transwell inserts and are incubated for 2 days to form an EC monolayer. On the day before the assay, the ECs are cytokine-stimulated to induce the expression of adhesion molecules. In the migration assay, human peripheral blood mononuclear cells (PBMC) are placed into the donor compartment of the transwell setup. After 4 h of incubation time, the migrated cells are harvested from the receiver compartment, stained with fluorescent antibodies and counted using flow cytometry. (B) PBMCs were preincubated with S1P for 1.5 h and then transferred into the donor compartment on top of the EC monolayer. […] Data are shown as mean ± SD of 3 to 5 independent experiments.
(§1) Transwell migration assays were performed similarly as published previously. HMEC-1 cells were seeded at a density of 75,000 cells per well in transwell inserts. Three days after cell seeding, the medium was changed, and the cells were stimulated with 100 ng/mL TNF-α and 20 ng/mL IFN-γ for 16–18 h. On the day of the assay, cells were washed with migration medium (serum-free RPMI medium supplemented with 0.1% BSA) to remove residual cytokines and starved for at least 1 h at 37 °C in migration medium. PBMC were starved for at least 1.5 h in migration medium before addition to the EC. For S1P and lifitegrast-treated samples, the PBMC were preincubated for at least 1.5 h at 37 °C with the ligands before addition to the EC. Pepitem and other peptides were added onto the EC monolayer and preincubated for 15–30 min at 37 °C before the addition of the PBMC. 200,000 PBMC per well were added directly on top of the EC prestimulated with pepitem or other peptides to reach a final volume of 150 μL in the donor compartments. The receiver compartments of the wells were filled with 600 μL RPMI with 20% FBS. After 4 h of migration at 37 °C, the receiver compartment with the migrated cells was collected. The migrated cells were stained with the indicated antibodies: CD3-APC (clone: OKT3, lot: B400127), CD4-PE (clone: OKT4. lot: B379180), CD8-FITC (clone: HIT8a, lot: B370193) from Biolegend and CD3-VioGreen (clone: REA613, lot: 5240502518), CD45RO-FITC (clone: REA611, lot: 5240502519), CD4-PerCP-Vio700 (clone: REA623, lot: 5240506702), CXCR3 PE-Vio615 (clone: REA232, lot: 5240506722), CD196-APC (clone: REA190, lot: 5240506717), CD8-APC-Vio770 (clone: REA734, lot: 5240303993) and CD45RO-PEVio616 (clone: REA611, lot: 5231102514) from Miltenyi Biotec (Bergisch Gladbach, Germany) and counted using precision counting beads (Biolegend) on a CytoflexS flow cytometer (BeckmanCoulter). Data was analyzed using CytExpert (Version 2.4). T cells were gated as CD3^+ cells, T cell subsets were gated as CD4^+ (CD3^+, CD4^+), CD8^+ (CD3^+, CD8^+), memory CD4^+ (CD3^+, CD4^+, CD45RO^+), memory CD8^+ (CD3^+, CD8^+, CD45RO^+) and Th1 cells (CD3^+, CD4^+, CXCR3^+, CCR6^–).
(§2) Data were analyzed using GraphPad Prism software. EC50 values were calculated by three-parameter nonlinear regression analysis. For this, the data points were normalized to the number of migrated cells in untreated (buffer) control samples (100%), and the regression was fitted with the top constraint to 100 and the slope fixed to 1. Statistical significance is indicated in graphs as n.s. not significant, * p < 0.05; ** p < 0.01; *** p < 0.001. The statistical tests used are indicated in the respective figure captions.

[1] = tested on: CD4+ lymphocytes (CD3+, CD4+); type: cell-based, human; settings: normalized to untreated control, mean ± SEM of 4-6 experiments
Experimental: as §1, §2

[2] = tested on: memory CD8+ cells (CD3+, CD8+, CD45RO+); type: cell-based, human; settings: normalized to untreated control, mean ± SEM of 4-6 experiments
Experimental: as §1, §2

[3] = tested on: CD8+ lymphocytes (CD3+, CD8+); type: cell-based, human; settings: normalized to untreated control, mean ± SEM of 4-6 experiments
Experimental: as §1, §2

[4] = tested on: memory CD4+ cells (CD3+, CD4+, CD45RO+); type: cell-based, human; settings: normalized to untreated control, mean ± SEM of 4-6 experiments
Experimental: as §1, §2

half-life (Serum stability assay) | Structure (SMILES) | % Inhibition of cell migration compared to control, CD3+ (CD3+ lymphocytes; 0.1 μM) | % Inhibition of cell migration compared to control, CD3+ (CD3+ lymphocytes; 1 μM) | % Inhibition of cell migration compared to control, CD4+ ([1]; 0.1 μM) | % Inhibition of cell migration compared to control, CD4+ ([1]; 1 μM) | % Inhibition of cell migration compared to control, Memory CD8+ ([2]; 0.1 μM) | % Inhibition of cell migration compared to control, Memory CD8+ ([2]; 1 μM) | % Inhibition of cell migration compared to control, CD8+ ([3]; 0.1 μM) | % Inhibition of cell migration compared to control, CD8+ ([3]; 1 μM) | % Inhibition of cell migration compared to control, Memory CD4+ ([4]; 0.1 μM) | % Inhibition of cell migration compared to control, Memory CD4+ ([4]; 1 μM)
> 48 h | CCCC[C@@H]1NC(=O)[C@H](C(C)C)NC(=O)[C@H](CCCCN)NC(=O)[C@@H](NC(=O)[C@H](CCC(N)=O)NC(=O)[C@H](CCC(=O)O)NC(C)=O)CSSC[C@@H](C(=O)N[C@@H](CCC(=O)O)C(=O)N[C@@H](CCCCN)C(N)=O)NC(=O)[C@H](CC(N)=O)NC(=O)[C@H](CC(=O)O)NC(=O)[C@H](CC(C)C)NC(=O)[C@@H]2CSSC[C@H](NC1=O)C(=O)N[C@@H](Cc1ccc(O)cc1)C(=O)N[C@@H](CCC(N)=O)C(=O)NCC(=O)N[C@@H](C)C(=O)N[C@@H](CCC(=O)O)C(=O)N[C@@H](CC(C)C)C(=O)N[C@@H](CO)C(=O)N1CCC[C@H]1C(=O)N[C@@H](CCC(=O)O)C(=O)N[C@@H](CC(C)C)C(=O)N[C@@H](CC(C)C)C(=O)N[C@@H](CCCNC(=N)N)C(=O)N[C@@H](CCCNC(=N)N)C(=O)N2 [VhTI-pep 4] (Ac-EQCKV[Nle]CYQGAELSPELLRRCLDNCEK-NH2; disulfide 3-25, 7-21) | 16.7 ± 11.0% | 24.4 ± 8.0% | 16.5 ± 7.3% | 24.5 ± 5.9% | 27.9 ± 3.8% | 19.7 ± 7.9% | 19.5 ± 20.2% | 26.0 ± 10.7% | 12.9 ± 11.0% | 27.2 ± 7.8%
> 48 h | CCCC[C@@H]1NC(=O)[C@H](C(C)C)NC(=O)[C@H](CCCCN)NC(=O)[C@@H](NC(=O)[C@H](CCC(N)=O)NC(=O)[C@H](CCC(=O)O)NC(C)=O)CSSC[C@@H](C(=O)N[C@@H](CCC(=O)O)C(=O)N[C@@H](CCCCN)C(N)=O)NC(=O)[C@H](CC(N)=O)NC(=O)[C@H](CC(=O)O)NC(=O)[C@H](CC(C)C)NC(=O)[C@@H]2CSSC[C@H](NC1=O)C(=O)N[C@@H](Cc1ccc(O)cc1)C(=O)N[C@@H](CCC(=O)O)C(=O)N[C@@H](CCC(N)=O)C(=O)NCC(=O)N[C@@H](C)C(=O)N[C@@H](CC(C)C)C(=O)N[C@@H](CO)C(=O)N1CCC[C@H]1C(=O)N[C@@H](CCC(=O)O)C(=O)N[C@@H](CC(C)C)C(=O)N[C@@H](CC(C)C)C(=O)N[C@@H](CCCNC(=N)N)C(=O)N[C@@H](CCCNC(=N)N)C(=O)N2 [VhTI-pep 5] (Ac-EQCKV[Nle]CYEQGALSPELLRRCLDNCEK-NH2; disulfide 3-25, 7-21) | 18.0 ± 6.2% | 28.4 ± 7.4% | 16.2 ± 7.7% | 33.5 ± 5.7% | 4.7 ± 10.1% | 14.0 ± 13.4% | 20.8 ± 6.8% | 24.8 ± 12.8% | 11.5 ± 13.6% | 28.6 ± 8.8%
25.8 ± 9.7 h | CC(=O)N[C@@H](CCC(=O)O)C(=O)N[C@@H](CCC(N)=O)C(=O)N[C@H]1CSSC[C@@H](C(=O)N[C@@H](CCC(=O)O)C(=O)N[C@@H](CCCCN)C(N)=O)NC(=O)[C@H](CC(N)=O)NC(=O)[C@H](CC(=O)O)NC(=O)[C@H](CC(C)C)NC(=O)[C@@H]2CSSC[C@H](NC(=O)[C@H]([C@@H](C)O)NC(=O)[C@H](C(C)C)NC(=O)[C@H](CO)NC1=O)C(=O)N[C@@H](CCC(=O)O)C(=O)N[C@@H](CCC(N)=O)C(=O)NCC(=O)N[C@@H](C)C(=O)N[C@@H](CCC(=O)O)C(=O)N[C@@H](CC(C)C)C(=O)N1CCC[C@H]1C(=O)N[C@@H](CO)C(=O)N[C@@H](CC(N)=O)C(=O)N[C@@H](CCC(=O)O)C(=O)N[C@@H](CCC(=O)O)C(=O)N[C@@H](CCCNC(=N)N)C(=O)N2 [VhTI-pep 6] (Ac-EQCSVTCEQGAELPSNEERCLDNCEK-NH2; disulfide 3-24, 7-20) | 27.0 ± 9.7% | 14.9 ± 11.6% | 19.5 ± 9.9% | 14.6 ± 8.7% | 23.2 ± 4.3% | 0.6 ± 6.1% | 28.0 ± 8.2% | 1.6 ± 7.8% | 24.6 ± 11.6% | 14.7 ± 7.6%
